Measured values: patent US9723989B2, “Ex vivo motility contrast imaging” (Purdue Research Foundation, priority 2015, dated 2017)

Test system: DLD-1 tumor spheroid
Assay: Biodynamic imaging / tissue dynamics spectroscopy, combined (Het, Div) metric of drug response
Type: cell-based
Conditions: per-pixel TDS drug-response spectrograms, FIG. 14, FIG. 15
From the text: There are two light paths in the optical coherence imaging system. The laser source provides light which is intensity-controlled by the neutral density filter and size-controlled by lenses L1 and L2. Light is communicated through a half-wave plate, and is then communicated through a polarizing beam splitter (PBS1) which generates an object path and a reference path. Lenses L3 and L4 expand the reference beam, and lens L5 performs the Fourier transform of the back-scattered dynamic speckle from a target. The wave plates (half-wave plate and quarter-wave plate) and the PBS2 ensure most of the laser power is in the object beam, and most of the back-scattered signal reaches the charge coupled device (CCD). The target is often a multicellular tumor spheroid, but can be any living biological specimen that is sufficiently immobilized, such as living tissue obtained by surgical biopsy or by needle biopsy. In TDS experiments, the images are captured at a fixed-depth (usually the mid-plane of the tumor tissue). For example, if the tumor spheroid has a diameter of 500 microns, the images captured by the CCD camera are the Fourier Domain back-scattered dynamic speckle holograms at the fixed depth of 250 microns in the tumor spheroid. Conversely, sections from multiple depths can be acquired to obtain stacks of images that are reconstructed into three-dimensional optical coherence volumetric images. In each 4 min interval, 2 acquisition rates are applied. First 200 images are captured at 25 fps; then another 100 images are captured at 0.5 fps. Thus after combining the high frequency data and the low frequency data together, in each 4 min interval (each data set), the spectrum frequency range is from 0.005 Hz to 12.5 Hz across more than 3 orders of magnitude.
The high-frequency acquisition generates a series of image frames in which the speckle varies in intensity from frame to frame. These intensities are analyzed using a Fourier transform to generate a high-frequency spectrum. The low-frequency acquisition similarly generates a low-frequency spectrum. These high- and low-frequency spectra overlap over a frequency range. A stitching algorithm is performed that combined the high- and low-frequency spectra into a single broad-band spectrum. This spectrum relates to the 300 images and constitutes one time-point spectrum. The process is repeated to generate a series of time-point spectra.
The outcome of the heterogeneity sampling can be encapsulated in a small number of metrics that are communicated to the operator. […]
An example of spatial non-uniformity is shown in FIG. 14 for the Raf inhibitor drug Sorafenib applied to a DLD-1 tumor spheroid. […] These spectrograms were analyzed for intensity and for spectral content. […]

Row | SMILES | Heterogeneity (Het) - how spatially uniform is the response | Diversity (Div) - phenotypic diversity, difference in spectrogram features / spectral content
1 | CNC(=O)c1cc(Oc2ccc(NC(=O)Nc3ccc(Cl)c(C(F)(F)F)c3)cc2)ccn1 [Sorafenib] | 0.83 | 
2 | CC(=O)O[C@H]1C(=O)[C@@]2(C)[C@H]([C@H](OC(=O)c3ccccc3)[C@]3(O)C[C@H](OC(=O)[C@H](O)[C@@H](NC(=O)c4ccccc4)c4ccccc4)C(C)=C1C3(C)C)[C@]1(OC(C)=O)CO[C@@H]1C[C@@H]2O [taxol] | high spatial heterogeneity | spectral content appears the same for core and shell
3 | CC(C)[C@@H]1NC(=O)[C@H](C)OC(=O)[C@@H](C(C)C)NC(=O)[C@@H](C(C)C)OC(=O)[C@H](C(C)C)NC(=O)[C@H](C)OC(=O)[C@@H](C(C)C)NC(=O)[C@@H](C(C)C)OC(=O)[C@H](C(C)C)NC(=O)[C@H](C)OC(=O)[C@@H](C(C)C)NC(=O)[C@@H](C(C)C)OC1=O [valinomycin] | One of the most uniform | 
